According to US20230131025A1, “QUINOLYL PHOSPHINE OXIDE COMPOUND, AND COMPOSITION AND APPLICATION THEREOF” (Betta Pharmaceuticals Co., Ltd., priority 2020, published 2023):

Columns and labels:
EGFR WT = EGFR WT (Homo sapiens, UniProt P00533); assay: Kinase inhibition assay (mobility shift); assay type: biochemical
Summary of the method: (§1)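 Caliper mobility-shift read of substrate conversion after kinase-compound preincubation 10 min at room temperature, then ATP/substrate addition and reaction at room temperature. Ten-point 3-fold dilutions from 3,000 or 100 nM top; IC50 from variable-slope four-parameter fit of percent inhibition.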

EGFR Δ19del/T790M/C797S = EGFR Δ19del/T790M/C797S (Homo sapiens, UniProt P00533, T790M/C797S, form not given); assay: Kinase inhibition assay (mobility shift); assay type: biochemical
Summary of the method: as §1

IGF1R = IGF1R (Homo sapiens, UniProt P08069); assay: Kinase inhibition assay (mobility shift); assay type: biochemical
Summary of the method: as §1

Ba/F3 EGFR WT = Ba/F3 EGFR WT (Homo sapiens, UniProt P00533); assay: Cell proliferation experiment (CellTiter Glo, 72 hours); assay type: cell-based; conditions: read-out: BaF3 EGFR WT IC50
Summary of the method: (§2)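 Ba/F3 cells overexpressing EGFR Δ19del/T790M/C797S or EGFR WT were seeded at 2000 or 3000 cells/well and exposed 72 h to 9 compound concentrations (3-fold, top 10000 or 1111 nM final, 0.1% DMSO). CellTiter-Glo luminescence gave survival inhibition versus controls; IC50 from nonlinear fit.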

Ba/F3-Δ19del/T790M/C797S = Ba/F3-Δ19del/T790M/C797S (Homo sapiens, UniProt P00533, T790M/C797S, cells depend on it, form not given); assay: as above; assay type: cell-based; conditions: read-out: Ba/F3/EGFR Δ19del/T790M/C797S IC50
Summary of the method: as §2

[1] = tested on: human epidermal cancer cells A431 carrying EGFR WT; assay: as above; assay type: cell-based; conditions: Homo sapiens, A-431
Summary of the method: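 Cells seeded at 2000 or 3000/well and exposed 72 h to 9-point 3-fold dilutions, top final 10000 nM or 1111 nM, 0.1% DMSO. Viability by CellTiter-Glo luminescence. Inhibition relative to cell and medium controls; IC50 by four-parameter nonlinear regression.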

EGFR WT, sequence (P00533 25-1210): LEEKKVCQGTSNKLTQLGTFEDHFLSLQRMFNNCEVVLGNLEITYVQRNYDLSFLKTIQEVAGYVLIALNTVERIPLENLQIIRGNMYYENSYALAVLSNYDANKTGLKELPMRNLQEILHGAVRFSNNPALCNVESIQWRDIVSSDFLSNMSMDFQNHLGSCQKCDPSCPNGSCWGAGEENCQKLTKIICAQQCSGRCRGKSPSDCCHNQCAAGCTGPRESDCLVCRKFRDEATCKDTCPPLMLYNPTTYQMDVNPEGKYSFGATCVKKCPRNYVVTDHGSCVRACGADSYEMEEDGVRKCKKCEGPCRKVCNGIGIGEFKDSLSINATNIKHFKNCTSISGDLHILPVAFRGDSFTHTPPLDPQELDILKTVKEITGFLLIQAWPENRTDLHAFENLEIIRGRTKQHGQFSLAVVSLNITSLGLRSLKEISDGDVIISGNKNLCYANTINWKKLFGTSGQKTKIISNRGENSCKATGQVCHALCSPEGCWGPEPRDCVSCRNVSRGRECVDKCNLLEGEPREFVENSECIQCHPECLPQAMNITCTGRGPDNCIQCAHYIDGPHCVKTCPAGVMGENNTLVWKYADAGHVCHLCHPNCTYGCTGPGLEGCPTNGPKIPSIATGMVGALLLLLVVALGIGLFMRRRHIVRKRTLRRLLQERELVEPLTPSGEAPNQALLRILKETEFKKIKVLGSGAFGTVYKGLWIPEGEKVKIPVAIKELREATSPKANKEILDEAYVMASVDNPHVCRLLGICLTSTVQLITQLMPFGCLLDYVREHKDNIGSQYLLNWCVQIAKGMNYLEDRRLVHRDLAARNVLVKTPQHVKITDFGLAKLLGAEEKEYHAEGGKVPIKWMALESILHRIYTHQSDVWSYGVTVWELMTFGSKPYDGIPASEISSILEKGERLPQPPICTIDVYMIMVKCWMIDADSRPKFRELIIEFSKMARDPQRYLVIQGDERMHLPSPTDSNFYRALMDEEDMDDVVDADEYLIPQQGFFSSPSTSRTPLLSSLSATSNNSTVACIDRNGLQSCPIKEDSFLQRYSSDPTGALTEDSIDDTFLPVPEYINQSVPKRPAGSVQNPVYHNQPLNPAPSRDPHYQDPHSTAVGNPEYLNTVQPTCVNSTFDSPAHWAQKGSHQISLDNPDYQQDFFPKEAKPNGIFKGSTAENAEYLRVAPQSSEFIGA
Ba/F3 EGFR WT, sequence (P00533 whole entry, stated change not applied): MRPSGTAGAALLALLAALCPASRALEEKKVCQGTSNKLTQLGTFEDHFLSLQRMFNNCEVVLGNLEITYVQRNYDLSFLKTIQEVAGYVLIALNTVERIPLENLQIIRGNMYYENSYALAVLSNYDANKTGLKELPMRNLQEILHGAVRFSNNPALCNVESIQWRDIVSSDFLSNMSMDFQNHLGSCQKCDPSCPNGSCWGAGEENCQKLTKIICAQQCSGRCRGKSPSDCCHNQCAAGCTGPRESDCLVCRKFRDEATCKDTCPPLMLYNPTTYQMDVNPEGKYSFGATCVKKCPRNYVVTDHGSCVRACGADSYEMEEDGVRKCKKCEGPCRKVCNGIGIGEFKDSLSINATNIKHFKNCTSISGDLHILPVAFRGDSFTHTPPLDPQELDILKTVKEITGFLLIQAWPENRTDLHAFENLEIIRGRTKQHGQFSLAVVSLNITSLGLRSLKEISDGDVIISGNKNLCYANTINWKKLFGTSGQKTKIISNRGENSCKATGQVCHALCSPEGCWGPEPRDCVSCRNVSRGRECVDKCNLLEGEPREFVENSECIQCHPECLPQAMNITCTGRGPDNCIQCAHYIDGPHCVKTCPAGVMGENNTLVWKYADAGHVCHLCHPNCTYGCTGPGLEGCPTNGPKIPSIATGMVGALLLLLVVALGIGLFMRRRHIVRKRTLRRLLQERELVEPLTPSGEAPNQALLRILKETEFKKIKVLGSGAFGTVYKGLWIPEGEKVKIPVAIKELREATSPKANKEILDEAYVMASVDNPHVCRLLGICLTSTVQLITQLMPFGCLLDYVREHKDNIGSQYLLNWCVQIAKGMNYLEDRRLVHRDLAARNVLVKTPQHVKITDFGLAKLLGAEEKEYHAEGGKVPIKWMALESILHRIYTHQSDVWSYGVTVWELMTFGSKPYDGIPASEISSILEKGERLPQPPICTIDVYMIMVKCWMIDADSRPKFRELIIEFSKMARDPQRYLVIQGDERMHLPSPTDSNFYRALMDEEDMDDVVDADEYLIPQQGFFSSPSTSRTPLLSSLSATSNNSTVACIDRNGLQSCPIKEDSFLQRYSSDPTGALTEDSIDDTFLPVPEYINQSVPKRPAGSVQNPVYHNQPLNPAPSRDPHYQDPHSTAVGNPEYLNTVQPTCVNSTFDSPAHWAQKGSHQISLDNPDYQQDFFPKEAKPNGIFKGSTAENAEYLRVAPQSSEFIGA
EGFR Δ19del/T790M/C797S, sequence (P00533 with tags, fused parts or gaps DEL746-750/T790M/C797S, form open): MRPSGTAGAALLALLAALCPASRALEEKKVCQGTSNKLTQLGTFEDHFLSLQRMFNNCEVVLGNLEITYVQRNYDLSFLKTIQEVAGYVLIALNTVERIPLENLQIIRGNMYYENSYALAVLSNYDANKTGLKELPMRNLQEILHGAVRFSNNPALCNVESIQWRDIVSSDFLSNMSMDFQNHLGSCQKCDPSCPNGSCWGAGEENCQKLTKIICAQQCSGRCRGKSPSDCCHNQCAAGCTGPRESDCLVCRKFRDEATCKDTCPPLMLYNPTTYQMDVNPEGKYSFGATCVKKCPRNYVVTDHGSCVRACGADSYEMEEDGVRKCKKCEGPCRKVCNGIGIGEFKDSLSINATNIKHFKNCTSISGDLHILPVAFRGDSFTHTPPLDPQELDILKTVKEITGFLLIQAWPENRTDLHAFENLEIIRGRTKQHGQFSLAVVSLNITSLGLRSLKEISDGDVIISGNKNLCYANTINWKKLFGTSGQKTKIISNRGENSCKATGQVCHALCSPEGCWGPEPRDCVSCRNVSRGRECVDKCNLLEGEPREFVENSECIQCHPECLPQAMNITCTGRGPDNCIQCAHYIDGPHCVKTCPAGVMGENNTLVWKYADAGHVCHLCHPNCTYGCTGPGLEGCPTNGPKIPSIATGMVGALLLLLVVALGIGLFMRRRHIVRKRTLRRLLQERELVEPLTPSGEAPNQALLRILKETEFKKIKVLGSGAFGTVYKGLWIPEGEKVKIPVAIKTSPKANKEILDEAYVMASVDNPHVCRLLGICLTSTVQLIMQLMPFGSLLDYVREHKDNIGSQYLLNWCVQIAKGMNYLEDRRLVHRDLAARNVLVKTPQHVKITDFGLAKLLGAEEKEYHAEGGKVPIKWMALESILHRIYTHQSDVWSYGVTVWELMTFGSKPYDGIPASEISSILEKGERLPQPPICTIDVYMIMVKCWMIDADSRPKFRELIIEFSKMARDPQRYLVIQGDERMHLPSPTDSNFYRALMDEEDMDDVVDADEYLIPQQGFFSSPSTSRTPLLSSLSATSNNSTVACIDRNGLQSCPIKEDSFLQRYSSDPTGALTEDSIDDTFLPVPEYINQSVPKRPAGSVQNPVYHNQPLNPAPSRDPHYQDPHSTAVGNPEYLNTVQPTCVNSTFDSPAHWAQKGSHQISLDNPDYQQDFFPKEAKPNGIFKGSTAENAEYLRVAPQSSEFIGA
Ba/F3-Δ19del/T790M/C797S, sequence (P00533 with tags, fused parts or gaps DEL746-750/T790M/C797S, form open): as above

Row | IC50 (EGFR WT) | IC50 (EGFR Δ19del/T790M/C797S) | IC50 (IGF1R) | GI50 (Ba/F3 EGFR WT) | GI50 (Ba/F3-Δ19del/T790M/C797S) | IC50 [1] | SMILES
1 | 7.3 nM | 0.3 nM | 178 nM | 160 nM | 1.9 nM | 1500 nM | CCc1cc(Nc2ncc(Br)c(Nc3ccc4nc(C5CC5)ccc4c3P(C)(C)=O)n2)c(OC)cc1N1CCC(N2CCN(C)CC2)CC1 [Compound J-018, (6-((5-Bromo-2-((5-ethyl-2-methoxy-4-(4-(4-methylpiperazin-1-yl)piperidin-1-yl)phenyl)amino)pyrimidin-4-yl)amino)-2-cyclopropylquinolin-5-yl)dimethylphosphine oxide]
2 | 21 nM | 0.72 nM | 107 nM | 144 nM | 2.2 nM | 983 nM | COc1cc(N2CCC(N3CCN(C)CC3)CC2)c(OC)cc1Nc1ncc(Br)c(Nc2ccc3nc(C4CC4)ccc3c2P(C)(C)=O)n1 [Compound J-020, (6-((5-Bromo-2-((2,5-dimethoxy-4-(4-(4-methylpiperazin-1-yl)piperidin-1-yl)phenyl)amino)pyrimidin-4-yl)amino)-2-cyclopropylquinolin-5-yl)dimethylphosphine oxide]
3 | 19.3 nM | 0.3 nM | 293 nM | 238 nM | 11.7 nM | 1140 nM | COc1cc(N2CCC(N3CCN(C)CC3)CC2)c(C#N)cc1Nc1ncc(Br)c(Nc2ccc3nc(C4CC4)ccc3c2P(C)(C)=O)n1 [Compound J-021, 5-((5-Bromo-4-((2-cyclopropyl-5-(dimethylphosphineoxide)quinolin-6-yl)amino)pyrimidin-2-yl)amino)-4-methoxy-2-(4-(4-methylpiperazin-1-yl)piperidin-1-yl)benzonitrile]
4 | 17 nM | 0.28 nM | 27 nM | 117 nM | 6.4 nM | 877 nM | COc1cc(Nc2ncc(Br)c(Nc3ccc4nc(C5CC5)ccc4c3P(C)(C)=O)n2)c(C)cc1N1CCC(N2CCN(C)CC2)CC1 [Compound J-023, (6-((5-Bromo-2-((5-methoxy-2-methyl-4-(4-(4-methylpiperazin-1-yl)piperidin-J-yl)phenyl)amino)pyrimidin-4-yl)amino)-2-cyclopropylquinolin-5-yl)dimethylphosphine oxide]
5 | 114 nM | 0.5 nM | 140 nM | 373 nM | 26.7 nM | 1380 nM | COc1cc(Nc2ncc(Br)c(Nc3ccc4nc(C5CC5)ccc4c3P(C)(C)=O)n2)c(C2CC2)cc1N1CCC(N2CCN(C)CC2)CC1 [Compound J-024, (6-((5-Bromo-2-((2-cyclopropyl-5-methoxy-4-(4-(4-methylpiperazin-1-yl)piperidin-1-yl)phenyl)amino)pyrimidin-4-yl)amino)-2-cyclopropylquinolin-5-yl)dimethylphosphine oxide]
6 | 11.1 nM | 0.3 nM | 61.6 nM | 52 nM | 1.4 nM | 9010 nM | CCc1cc(Nc2ncc(Br)c(Nc3ccc4nc(C5CC5)ccc4c3P(C)(C)=O)n2)c(C)cc1N1CCC(N2CCN(C)CC2)CC1 [Compound J-027, (6-((5-Bromo-2-((5-ethyl-2-methyl-4-(4-(4-methylpiperazin-1-yl)piperidin-1-yl)phenyl)amino)pyrimidin-4-yl)amino)-2-cyclopropylquinolin-5-yl)dimethylphosphine oxide]
7 | 19 nM | 0.14 nM | 116 nM | 155 nM | 20.8 nM | 842 nM | CCc1ccc2c(P(C)(C)=O)c(Nc3nc(Nc4cc(C)c(N5CCC(N6CCN(C)CC6)CC5)cc4OC)ncc3Br)ccc2n1 [Compound J-028, (6-((5-Bromo-2-((2-methoxy-5-methyl-4-(4-(4-methylpiperazin-1-yl)piperidin-1-yl)phenyl)amino)pyrimidin-4-yl)amino)-2-ethylquinolin-5-yl)dimethylphosphine oxide]
